The values that follow come from ChEMBL document CHEMBL3994651, “Physapubescin, a natural withanolide as a kidney-type glutaminase (KGA) inhibitor” (Bioorg Med Chem Lett, 2017).

For one assay, the system named is L02. As to the kind of experiment: Cytotoxicity against human LO2 cells assessed as growth inhibition after 48 hrs by CCK8 assay. Type of assay: cell-based. Conditions: L02, 48 h. (Tetrazolium dyes change colour on reduction, which living cells bring about.)
In assay [1] the target is T1, Glutaminase kidney isoform, mitochondrial (Homo sapiens) (UniProt O94925).
T1 sequence (whole entry): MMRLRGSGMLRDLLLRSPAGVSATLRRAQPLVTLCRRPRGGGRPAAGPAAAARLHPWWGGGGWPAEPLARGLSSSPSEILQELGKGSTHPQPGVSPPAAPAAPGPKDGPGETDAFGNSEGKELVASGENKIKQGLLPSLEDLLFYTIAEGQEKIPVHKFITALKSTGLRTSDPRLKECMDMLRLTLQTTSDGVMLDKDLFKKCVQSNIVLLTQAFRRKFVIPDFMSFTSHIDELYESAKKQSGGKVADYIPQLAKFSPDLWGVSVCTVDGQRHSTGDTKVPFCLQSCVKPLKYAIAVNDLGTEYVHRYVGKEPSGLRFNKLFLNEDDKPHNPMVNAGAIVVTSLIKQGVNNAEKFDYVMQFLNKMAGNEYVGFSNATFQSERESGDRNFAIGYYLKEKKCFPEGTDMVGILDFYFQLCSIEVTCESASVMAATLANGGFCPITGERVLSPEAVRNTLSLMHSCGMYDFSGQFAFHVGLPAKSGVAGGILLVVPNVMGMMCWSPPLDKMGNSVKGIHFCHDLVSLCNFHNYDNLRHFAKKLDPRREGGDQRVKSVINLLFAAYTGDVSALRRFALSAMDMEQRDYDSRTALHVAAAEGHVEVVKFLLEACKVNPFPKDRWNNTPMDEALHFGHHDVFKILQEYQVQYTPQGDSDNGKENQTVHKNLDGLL
As to the kind of experiment: Competitive inhibition of recombinant KGA (unknown origin) at 40 uM using varying levels of glutamine substrate measured within 1 to 4 mins.

Assay [2] deals with T2, Glutaminase kidney isoform, mitochondrial (Homo sapiens, UniProt O94925).
T2 sequence (O94925 whole entry): T1 sequence (whole entry)
As to the kind of experiment: Inhibition of recombinant KGA (unknown origin) using glutamine as substrate.

For a further assay, the system named is Vero. The experiment in a line: Cytotoxicity against monkey Vero cells assessed as growth inhibition after 48 hrs by CCK8 assay. The format is cell-based. Conditions: Chlorocebus sabaeus.
Assay [3] concerns the target T2, Glutaminase kidney isoform, mitochondrial. As to the kind of experiment: Binding affinity to NT-647-NHS-labelled KGA (unknown origin) after 10 mins by microscale thermophoresis method. A general note: Microscale thermophoresis detects binding through changes in fluorescence in a small temperature gradient.
A further assay relates to HT-1080. The experiment in a line: Cytotoxicity against human HT1080 cells assessed as growth inhibition after 48 hrs by CCK8 assay. The format is functional, cell-based. Particulars: HT-1080, 48 h.
For the next assay, the system named is HCC827. As to the kind of experiment: Cytotoxicity against human erlotinib-resistant HCC827 cells assessed as growth inhibition after 48 hrs by CCK8 assay. The format is functional, cell-based. Particulars: HCC827, 48 h.
The test system of a further assay is L929. The experiment in a line: Cytotoxicity against mouse L929 cells assessed as growth inhibition after 48 hrs by CCK8 assay. The format is cell-based. Particulars: L929, 48 h.

The source made the active and inactive calls. No cut-off for these calls is given here.

For `CC(=O)O[C@H]1C[C@H]([C@H](C)[C@H]2C[C@]3(C)O[C@]3(C)[C@H](O)O2)[C@@]2(C)CC[C@H]3[C@@H](C[C@@H]4O[C@]45[C@@H](O)C=CC(=O)[C@]35C)[C@H]12`, the IC50 (in general, the concentration at which inhibition is half-maximal) was 10.4 µM in the assay with L02; 9.89 µM in assay [2]; 12.4 µM in the assay on Vero; 6.99 µM with HT-1080; 2.76 µM in the assay on HCC827; 10.4 µM in the assay on L929. Further, the inhibition entry in assay [1] was “Active”. Moreover, in assay [3], the affinity, expressed as Kd, was 4.95 µM.
Regarding `O=C(Cc1cccc(OC(F)(F)F)c1)Nc1ccc(CCCCc2nnc(NC(=O)Cc3ccccn3)s2)nn1`, the figures for the half-maximal inhibitory concentration (IC50) with HT-1080 and in the assay with HCC827 were 44.4 µM and 51.4 µM, respectively.
In the case of `C[C@@H]([C@H]1CC[C@H]2[C@@H]3CC=C4C[C@@H](O)C[C@H](O)[C@]4(C)[C@H]3CC[C@]12C)[C@H]1C[C@@](C)(O)[C@](C)(O)C(O)O1` (some centres not stated), the 50% inhibitory concentration (IC50) is more than 100 µM in assay [2], more than 200 µM in the assay with HT-1080 and more than 200 µM in the assay with HCC827.
With `C[C@@H]([C@H]1CC[C@H]2[C@@H]3CC=C4C[C@@H](O[C@@H]5O[C@H](CO[C@@H]6O[C@H](CO)[C@@H](O)[C@H](O)[C@H]6O)[C@@H](O)[C@H](O)[C@H]5O)C[C@H](O)[C@]4(C)[C@H]3CC[C@]12C)[C@H]1C[C@@](C)(O)[C@](C)(O)C(O)O1` (some centres not stated), the IC50 is more than 100 µM in assay [2], more than 200 µM with HT-1080 and more than 200 µM in the assay with HCC827.
In the case of `CO[C@@H]1O[C@@H]([C@@H](C)[C@H]2CC[C@H]3[C@@H]4CC=C5C[C@@H](O[C@@H]6O[C@H](CO[C@@H]7O[C@H](CO)[C@@H](O)[C@H](O)[C@H]7O)[C@@H](O)[C@H](O)[C@H]6O)C[C@H](O)[C@]5(C)[C@H]4CC[C@]23C)C[C@](C)(OC)[C@]1(C)O`, the values for the half-inhibitory concentration (IC50) (in assay [2]; in the assay with HT-1080; with HCC827) were more than 100 µM, more than 200 µM and more than 200 µM, respectively.
`O=C(Cc1ccccc1)Nc1nnc(CCSCCc2nnc(NC(=O)Cc3ccccc3)s2)s1`: the half-inhibitory concentration (IC50) in the assay with HT-1080 stood at 47.7 µM; in the assay with HCC827 it was 42.4 µM.
With `C[C@@H]([C@H]1CC[C@H]2[C@@H]3CC=C4C[C@@H](O[C@@H]5O[C@H](CO[C@@H]6O[C@H](CO)[C@@H](O)[C@H](O)[C@H]6O)[C@@H](O)[C@H](O)[C@H]5O)C[C@H](O)[C@]4(C)[C@H]3CC[C@]12C)[C@H]1C[C@](C)(O)[C@](C)(O)C(=O)O1`, the 50% inhibitory concentration (IC50) was more than 100 µM in assay [2], more than 200 µM with HT-1080 and more than 200 µM with HCC827.
Consider `C[C@@H]([C@H]1CC[C@H]2[C@@H]3CC=C4C[C@@H](O)C[C@H](O)[C@]4(C)[C@H]3CC[C@]12C)[C@H]1C[C@](C)(O)[C@](C)(O)C(=O)O1`, for which the half-maximal inhibitory concentration (IC50) in assay [2] is more than 100 µM; in the assay with HT-1080, more than 200 µM; in the assay with HCC827 it was more than 200 µM.
